Laboratory results as given in patent publication US7335814B2, “Transgenic cells expressing glucosyltransferase nucleic acids” (The University of York, priority 2000, dated 2008).

Tests used:
Assay type in all cases: biochemical
recombinant GTase A320 = target: T1, recombinant GTase A320 (Arabidopsis thaliana, UniProt Q9LVF0); experiment: Specific activity of recombinant GTase producing glucose ester against lignin precursors (HPLC); details: 5 mM UDPG, 0.2 μg GTase, 200 μl, 20° C., 30 min
T1 construct: made in house; host or cells: E. coli
T1 sequence (Q9LVF0 1-496): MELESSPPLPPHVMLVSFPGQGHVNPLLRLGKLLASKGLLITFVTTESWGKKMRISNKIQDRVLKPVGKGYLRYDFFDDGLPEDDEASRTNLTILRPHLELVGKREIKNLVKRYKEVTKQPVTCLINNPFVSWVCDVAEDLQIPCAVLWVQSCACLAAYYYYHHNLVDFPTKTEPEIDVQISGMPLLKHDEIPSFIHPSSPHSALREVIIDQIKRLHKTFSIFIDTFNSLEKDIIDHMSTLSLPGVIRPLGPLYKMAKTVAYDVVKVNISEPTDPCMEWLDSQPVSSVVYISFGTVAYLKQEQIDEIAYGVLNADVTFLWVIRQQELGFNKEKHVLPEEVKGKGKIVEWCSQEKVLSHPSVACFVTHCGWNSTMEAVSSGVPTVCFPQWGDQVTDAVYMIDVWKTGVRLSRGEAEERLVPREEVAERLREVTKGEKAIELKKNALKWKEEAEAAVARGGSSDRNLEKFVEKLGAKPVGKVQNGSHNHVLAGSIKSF

recombinant GTase A119 [1] = target: T2, recombinant GTase A119 (Arabidopsis thaliana, UniProt Q9LVR1); experiment: Kinetic studies (Michaelis-Menten) on recombinant GTase producing O-glucosides; details: O-glucoside formation
T2 construct: made in house; host or cells: E. coli
T2 sequence (Q9LVR1 1-481): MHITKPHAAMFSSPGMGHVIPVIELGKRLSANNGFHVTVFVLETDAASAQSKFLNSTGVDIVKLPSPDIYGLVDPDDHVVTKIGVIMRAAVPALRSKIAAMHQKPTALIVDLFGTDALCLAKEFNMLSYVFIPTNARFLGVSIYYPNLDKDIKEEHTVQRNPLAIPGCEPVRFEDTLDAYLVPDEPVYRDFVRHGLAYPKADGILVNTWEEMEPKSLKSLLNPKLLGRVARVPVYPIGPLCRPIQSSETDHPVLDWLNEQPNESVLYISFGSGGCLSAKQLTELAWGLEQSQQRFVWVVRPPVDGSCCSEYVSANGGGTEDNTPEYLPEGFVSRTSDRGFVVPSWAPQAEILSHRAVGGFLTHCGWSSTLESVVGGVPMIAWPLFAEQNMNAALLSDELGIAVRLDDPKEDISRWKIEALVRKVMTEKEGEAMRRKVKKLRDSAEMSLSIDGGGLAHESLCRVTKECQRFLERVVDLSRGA

recombinant GTase A41 [2] = target: T3, recombinant GTase A41 (Arabidopsis thaliana, UniProt Q5XF20); experiment: Kinetic studies (Michaelis-Menten) on recombinant GTase producing glucose esters; details: glucose ester formation
T3 construct: made in house; host or cells: E. coli
T3 sequence (Q5XF20 7-490): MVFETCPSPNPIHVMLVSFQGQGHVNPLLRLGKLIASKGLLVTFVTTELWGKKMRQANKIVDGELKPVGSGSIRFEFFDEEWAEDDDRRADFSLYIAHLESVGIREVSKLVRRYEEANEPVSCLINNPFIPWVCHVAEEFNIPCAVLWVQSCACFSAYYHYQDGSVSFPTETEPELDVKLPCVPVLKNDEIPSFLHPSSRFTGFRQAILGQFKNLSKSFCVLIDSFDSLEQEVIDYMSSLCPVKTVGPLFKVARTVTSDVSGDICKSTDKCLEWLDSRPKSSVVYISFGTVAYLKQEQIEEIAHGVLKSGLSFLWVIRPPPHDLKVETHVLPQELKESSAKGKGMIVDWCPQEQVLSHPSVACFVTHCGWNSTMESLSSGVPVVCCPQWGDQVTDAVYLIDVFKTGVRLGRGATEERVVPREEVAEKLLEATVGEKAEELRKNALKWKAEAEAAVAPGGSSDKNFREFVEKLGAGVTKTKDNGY

recombinant GTase A41 [3] = target: T3, recombinant GTase A41; experiment: Specific activity of recombinant GTase producing glucose ester against lignin precursors (HPLC); details: 5 mM UDPG, 0.2 μg GTase, 200 μl, 20° C., 30 min
recombinant GTase A119 [4] = target: T2, recombinant GTase A119; experiment: Specific activity of recombinant GTase producing O-glucosides against lignin precursors (HPLC); details: 30° C.; ND = not detected
recombinant GTase A962 = target: T4, recombinant GTase A962 (Arabidopsis thaliana, UniProt O82382); experiment: as above; details: 30° C.; ND = not detected
T4 construct: made in house; host or cells: E. coli
T4 sequence (O82382 1-474): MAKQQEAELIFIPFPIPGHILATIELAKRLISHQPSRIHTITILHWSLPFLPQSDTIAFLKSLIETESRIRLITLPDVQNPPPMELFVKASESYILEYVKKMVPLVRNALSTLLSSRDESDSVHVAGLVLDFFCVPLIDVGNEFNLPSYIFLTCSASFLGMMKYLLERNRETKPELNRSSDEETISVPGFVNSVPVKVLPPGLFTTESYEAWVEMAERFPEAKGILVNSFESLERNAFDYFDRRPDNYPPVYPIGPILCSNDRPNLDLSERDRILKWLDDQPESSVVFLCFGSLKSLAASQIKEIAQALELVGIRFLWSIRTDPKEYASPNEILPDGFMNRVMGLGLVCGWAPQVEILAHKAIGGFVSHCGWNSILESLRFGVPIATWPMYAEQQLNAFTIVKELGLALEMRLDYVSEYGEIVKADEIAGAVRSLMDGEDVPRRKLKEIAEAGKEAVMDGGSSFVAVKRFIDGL

recombinant GTase A961 = target: T5, recombinant GTase A961 (Arabidopsis thaliana, UniProt O82381); experiment: as above; details: 30° C.; ND = not detected
T5 construct: made in house; host or cells: E. coli
T5 sequence (O82381 1-481): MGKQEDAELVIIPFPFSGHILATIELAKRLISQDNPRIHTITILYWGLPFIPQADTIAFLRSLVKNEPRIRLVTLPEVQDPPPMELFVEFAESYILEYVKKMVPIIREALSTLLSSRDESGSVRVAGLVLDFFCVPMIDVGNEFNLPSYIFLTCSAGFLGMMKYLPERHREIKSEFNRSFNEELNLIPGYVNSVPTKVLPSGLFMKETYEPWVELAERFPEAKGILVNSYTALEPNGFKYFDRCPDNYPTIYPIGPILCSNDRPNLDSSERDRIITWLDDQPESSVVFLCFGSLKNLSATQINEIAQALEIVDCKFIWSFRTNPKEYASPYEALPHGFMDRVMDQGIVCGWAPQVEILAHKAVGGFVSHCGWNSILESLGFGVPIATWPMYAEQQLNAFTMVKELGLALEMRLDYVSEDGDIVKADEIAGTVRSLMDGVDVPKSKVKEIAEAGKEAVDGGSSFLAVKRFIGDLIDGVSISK

Compound | Specific activity of A320 (substrate converted to glucose ester) (recombinant GTase A320) | Vmax (A119) (recombinant GTase A119 [1]) | Vmax (A41) (recombinant GTase A41 [2]) | Specific activity of A41 (substrate converted to glucose ester) (recombinant GTase A41 [3]) | Specific activity of A119 (substrate converted to 4-O-glucoside) (recombinant GTase A119 [4]) | Specific activity of A962 (substrate converted to 4-O-glucoside) (recombinant GTase A962) | Specific activity of A961 (substrate converted to 4-O-glucoside) (recombinant GTase A961)
COc1cc(/C=C/C(=O)O)ccc1O [Ferulic acid, ferulic acid] | 0.54 nkat/mg | 18.87 nkat/mg | 11.35 nkat/mg | 6.64 nkat/mg | 14.48 nkat/mg | – | –
O=C(O)/C=C/c1ccc(O)cc1 [p-coumaric acid] | 0.05 nkat/mg | – | – | 13.53 nkat/mg | 0.02 nkat/mg | 0.01 nkat/mg | 0.01 nkat/mg
